Where “and” joins values, the source holds several entries; their conditions need not be identical. Equal values may be shown once.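 Interpolation was linear, between the two tested concentrations surrounding the appropriate level; five concentrations were tested over 48 hours in 96-well plates. GI50 = concentration required for 50% inhibition of growth. TGI is the concentration that stops growth completely.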 A value given as a limit tells only on which side of the number the result lay.

The values that follow come from PubChem BioAssay (NCI).

Among the test systems are IGROV1 ovarian; NCI-H23 lung; OVCAR-4 ovarian; OVCAR-8 ovarian; RXF 393 renal; SK-MEL-5 melanoma; SR leukemia; UACC-257 melanoma.
Test in all cases: DTP human tumour cell line panel, 48 h

On to `NC[C@H]1Nc2ccccc2[C@@H](O)C1O` (some centres undefined), for which the TGI in the assay on IGROV1 ovarian, with NCI-H23 lung, in the assay on OVCAR-4 ovarian, with OVCAR-8 ovarian, in the assay on RXF 393 renal and in the assay on SK-MEL-5 melanoma was more than 100 µM each time. Moreover, the TGI in the assay on SR leukemia and in the assay with UACC-257 melanoma was more than 100 µM throughout.

In the case of `N#Cc1ccc2c(c1)C(=O)c1c-2n(CCCCl)c(=O)c2cc([N+](=O)[O-])ccc12`, the GI50 with IGROV1 ovarian was 3.95 µM; in the assay on NCI-H23 lung, 4.81 µM; in the assay with OVCAR-4 ovarian it was 60.8 µM; in the assay with OVCAR-8 ovarian, 20.6 µM; in the assay with RXF 393 renal, 11.9 µM; in the assay on SK-MEL-5 melanoma, 5.07 µM. The GI50 is 0.178 µM in the assay on SR leukemia and more than 100 µM in the assay with UACC-257 melanoma. The TGI in the assay on IGROV1 ovarian is 53.3 µM; with NCI-H23 lung, 17.6 µM; in the assay on OVCAR-4 ovarian it was more than 100 µM; with OVCAR-8 ovarian it was more than 100 µM; with RXF 393 renal, 37.7 µM; in the assay on SK-MEL-5 melanoma it was 71.5 µM. Besides, the concentration for total growth inhibition (TGI) is 1.7 µM in the assay with SR leukemia and more than 100 µM in the assay on UACC-257 melanoma.

`C=C1C(=O)O[C@H]2[C@H]1CC/C(COC(=O)c1cc3ccccc3o1)=C\CC[C@@]1(C)O[C@@H]21`: the GI50 with IGROV1 ovarian is 1.39 µM; in the assay with NCI-H23 lung it was 1.98 µM; in the assay on OVCAR-4 ovarian, 1.56 µM; in the assay with OVCAR-8 ovarian, 2.43 µM; in the assay with RXF 393 renal it was 1.43 µM; with SK-MEL-5 melanoma it was 1.52 µM. The results for the GI50 in the assay on SR leukemia and in the assay with UACC-257 melanoma were 1.15 µM and 1.52 µM, respectively. For the same compound, the TGI with IGROV1 ovarian worked out at 3.23 µM; in the assay with NCI-H23 lung, 4.75 µM; with OVCAR-4 ovarian, 3.98 µM; with OVCAR-8 ovarian, 7.63 µM; with RXF 393 renal it was 2.87 µM; in the assay with SK-MEL-5 melanoma, 2.89 µM. Besides, the TGI was determined as 5.33 µM in the assay on SR leukemia and 3.04 µM in the assay with UACC-257 melanoma.

On to `COc1cc(Nc2nc3ccccc3nc2NS(=O)(=O)c2ccc(NC(=O)c3ccc(C)c(OC)c3)cc2)cc(OC)c1`, for which the GI50 in the assay with NCI-H23 lung was 2.27 µM and 12.5 µM and 1.33 µM; in the assay on OVCAR-8 ovarian, 4.19 µM and 20.5 µM and 2.82 µM; with RXF 393 renal, 2.8 µM and 7.57 µM and 1.06 µM; in the assay with SK-MEL-5 melanoma, 4.19 µM and 11.4 µM and 1.71 µM. The TGI in the assay on NCI-H23 lung was 17.3 µM and 58.9 µM and > 10 µM; with OVCAR-4 ovarian it was more than 100 µM; with OVCAR-8 ovarian it was more than 100 µM; in the assay on RXF 393 renal it was 14.8 µM and 33.4 µM and > 6.13 µM; with SK-MEL-5 melanoma, 38.4 µM and 28.7 µM and > 6.54 µM; in the assay with SR leukemia it was 51.2 µM and 49.1 µM and > 10 µM.

With `O=C1CC(=O)N(C(=O)c2nn(-c3ccc(Cl)cc3)cc2O)N1`, the GI50 in the assay on IGROV1 ovarian was 0.378 µM; in the assay with NCI-H23 lung it was 0.493 µM; with OVCAR-4 ovarian, 1.51 µM; with OVCAR-8 ovarian, 0.636 µM; in the assay with RXF 393 renal it was 0.191 µM; in the assay on SK-MEL-5 melanoma, 1.69 µM. Moreover, the GI50 was 0.26 µM in the assay on SR leukemia and 0.8 µM in the assay with UACC-257 melanoma. Also, the TGI in the assay with IGROV1 ovarian was 20.2 µM; in the assay with NCI-H23 lung, more than 100 µM; in the assay on OVCAR-4 ovarian it was more than 100 µM; in the assay on OVCAR-8 ovarian it was more than 100 µM; with RXF 393 renal, more than 47 µM; with SK-MEL-5 melanoma, 12 µM. Also, the TGI in the assay with SR leukemia stood at 5.04 µM.

On to `Cc1cc(=O)oc2c(C)c(O)ccc12`, for which the TGI in the assay with IGROV1 ovarian, in the assay on NCI-H23 lung, with OVCAR-4 ovarian, in the assay with OVCAR-8 ovarian, with RXF 393 renal and with SK-MEL-5 melanoma was more than 100 µM throughout. Further, the total growth inhibition concentration (TGI) in the assay on SR leukemia and in the assay on UACC-257 melanoma was more than 100 µM in each case.

Take `CS(=O)(=O)CCNCc1ccc(-c2ccc3ncnc(Nc4ccc(OCc5ccccc5)c(Br)c4)c3c2)o1`: the GI50 in the assay on IGROV1 ovarian was 4.94 µM; in the assay on NCI-H23 lung it was 10.5 µM; in the assay on OVCAR-4 ovarian, 15.5 µM; in the assay on OVCAR-8 ovarian, 9.62 µM; in the assay on RXF 393 renal it was 3.71 µM; in the assay on SK-MEL-5 melanoma, 3.44 µM. For the same compound, the GI50 was 8.49 µM with SR leukemia and 4.77 µM in the assay on UACC-257 melanoma. Moreover, the TGI in the assay with IGROV1 ovarian was more than 25 µM; in the assay with NCI-H23 lung, more than 25 µM; with OVCAR-4 ovarian, more than 25 µM; with OVCAR-8 ovarian it was more than 25 µM; in the assay on RXF 393 renal it was 8.19 µM; in the assay on SK-MEL-5 melanoma it was 6.71 µM. The TGI was more than 23.3 µM with SR leukemia and 9.3 µM in the assay with UACC-257 melanoma.

As for `Cc1ccc(NC2=C(Cl)C(=O)N(Cc3ccc(Cl)cc3)C2=O)cc1O`, the GI50 was 11.2 µM in the assay with IGROV1 ovarian; 5.56 µM in the assay with NCI-H23 lung; 25.4 µM in the assay on OVCAR-4 ovarian; 7.1 µM in the assay with OVCAR-8 ovarian; 10.4 µM with RXF 393 renal; 12.6 µM with SK-MEL-5 melanoma. In addition, the GI50 in the assay with SR leukemia was 71.4 µM; in the assay on UACC-257 melanoma, 13 µM. Also, the TGI is 33 µM in the assay on IGROV1 ovarian; 23.7 µM with NCI-H23 lung; more than 100 µM in the assay with OVCAR-4 ovarian; 38.6 µM in the assay on OVCAR-8 ovarian; 36.4 µM with RXF 393 renal; 28 µM in the assay with SK-MEL-5 melanoma. In addition, the TGI in the assay with SR leukemia was more than 100 µM; with UACC-257 melanoma, 28.7 µM.

Turning to `O=c1ccs[nH]1`, the TGI with IGROV1 ovarian was 66.5 µM; in the assay with NCI-H23 lung, 43.7 µM; in the assay with OVCAR-4 ovarian it was 32.5 µM; in the assay on OVCAR-8 ovarian it was 32.9 µM; in the assay with RXF 393 renal, 21 µM; in the assay with SK-MEL-5 melanoma it was 46.5 µM. In addition, the TGI was found to be 16.4 µM in the assay with SR leukemia and 33.2 µM with UACC-257 melanoma.

For `NC1CCC(Nc2nc(NCc3ccc(-c4ccccc4O)nc3)c3ncn(C4CCCC4)c3n2)CC1` (centres undefined), the GI50 is 0.0345 µM in the assay on IGROV1 ovarian; 0.0214 µM in the assay on NCI-H23 lung; 0.0144 µM with RXF 393 renal; 0.0313 µM in the assay with SK-MEL-5 melanoma; 0.0354 µM in the assay with SR leukemia; 0.0227 µM in the assay on UACC-257 melanoma. Also, the total growth inhibition concentration (TGI) with IGROV1 ovarian stood at 2.04 µM; in the assay on NCI-H23 lung, 0.0664 µM; in the assay on RXF 393 renal, 0.0356 µM; in the assay on SK-MEL-5 melanoma, 1.17 µM; with SR leukemia, 1.35 µM; in the assay on UACC-257 melanoma it was 0.0729 µM.

Regarding `CC(=O)N1C/C(=C/c2ccc(Cl)cc2)C(=O)/C(=C/c2ccc(Cl)cc2)C1`, the GI50 in the assay on IGROV1 ovarian was 0.761 µM; in the assay with NCI-H23 lung, 1.5 µM; in the assay on OVCAR-4 ovarian, 0.795 µM; in the assay on OVCAR-8 ovarian, 0.463 µM; with RXF 393 renal, 0.546 µM; in the assay on SK-MEL-5 melanoma, 1.49 µM. In the assay with UACC-257 melanoma, the GI50 is 1.52 µM. Further, the TGI in the assay on IGROV1 ovarian was determined as 2.11 µM; in the assay with NCI-H23 lung, 3.67 µM; with OVCAR-4 ovarian it was 3.22 µM; in the assay with OVCAR-8 ovarian, 2.17 µM; with RXF 393 renal, 1.61 µM; in the assay with SK-MEL-5 melanoma, 2.9 µM. For the same compound, the TGI in the assay with UACC-257 melanoma came to 2.97 µM.
